According to the NIST ThermoML archive (doi:10.1016/j.jct.2012.03.003):

Test: xn = mol fraction of the nth substance listed
Settings: Liquid, Vibrating tube method

COc1cc2c(cc1O)CC1c3c(cc(O)c(OC)c3-2)CCN1C (stereo not given) [boldine] + CCCO
Settings | mass density [kg/m3]
323.11 K, 16000 kPa, x1 = 0.0112 | 811.88
323.11 K, 16000 kPa, x1 = 0.0142 | 816.47
323.11 K, 17000 kPa, x1 = 0.0112 | 812.65
323.11 K, 17000 kPa, x1 = 0.0142 | 817.24
323.11 K, 18000 kPa, x1 = 0.0112 | 813.42
323.11 K, 18000 kPa, x1 = 0.0142 | 818
323.11 K, 19000 kPa, x1 = 0.0112 | 814.16
323.11 K, 19000 kPa, x1 = 0.0142 | 818.74
323.11 K, 20000 kPa, x1 = 0.0112 | 814.92
323.11 K, 20000 kPa, x1 = 0.0142 | 819.49
323.12 K, 1000 kPa, x1 = 0.0077 | 792.79
323.12 K, 2000 kPa, x1 = 0.0077 | 793.61
323.12 K, 3000 kPa, x1 = 0.0077 | 794.44
323.12 K, 4000 kPa, x1 = 0.0077 | 795.28
323.12 K, 5000 kPa, x1 = 0.0077 | 796.12
323.12 K, 6000 kPa, x1 = 0.0077 | 796.97
323.12 K, 7000 kPa, x1 = 0.0077 | 797.82
323.12 K, 8000 kPa, x1 = 0.0077 | 798.67
323.12 K, 9000 kPa, x1 = 0.0077 | 799.51
323.12 K, 10000 kPa, x1 = 0.0077 | 800.35
323.12 K, 11000 kPa, x1 = 0.0077 | 801.2
323.12 K, 12000 kPa, x1 = 0.0077 | 802.03
323.12 K, 13000 kPa, x1 = 0.0077 | 802.85
323.12 K, 14000 kPa, x1 = 0.0077 | 803.66
323.12 K, 15000 kPa, x1 = 0.0077 | 804.47
323.12 K, 16000 kPa, x1 = 0.0077 | 805.27
323.12 K, 17000 kPa, x1 = 0.0077 | 806.04
323.12 K, 18000 kPa, x1 = 0.0077 | 806.81
323.12 K, 19000 kPa, x1 = 0.0077 | 807.57
323.12 K, 20000 kPa, x1 = 0.0077 | 808.3
323.14 K, 1000 kPa, x1 = 0.0046 | 788.94
323.14 K, 2000 kPa, x1 = 0.0046 | 789.78
323.14 K, 3000 kPa, x1 = 0.0046 | 790.61
323.14 K, 4000 kPa, x1 = 0.0046 | 791.45
323.14 K, 5000 kPa, x1 = 0.0046 | 792.3
323.14 K, 6000 kPa, x1 = 0.0046 | 793.15
323.14 K, 7000 kPa, x1 = 0.0046 | 794.01
323.14 K, 8000 kPa, x1 = 0.0046 | 794.86
323.14 K, 9000 kPa, x1 = 0.0046 | 795.72
323.14 K, 10000 kPa, x1 = 0.0046 | 796.56
323.14 K, 11000 kPa, x1 = 0.0046 | 797.4
323.14 K, 12000 kPa, x1 = 0.0046 | 798.24
323.14 K, 13000 kPa, x1 = 0.0046 | 799.07
323.14 K, 14000 kPa, x1 = 0.0046 | 799.88
323.14 K, 15000 kPa, x1 = 0.0046 | 800.71
323.14 K, 16000 kPa, x1 = 0.0046 | 801.5
323.14 K, 17000 kPa, x1 = 0.0046 | 802.28
323.14 K, 18000 kPa, x1 = 0.0046 | 803.06
323.14 K, 19000 kPa, x1 = 0.0046 | 803.81
323.14 K, 20000 kPa, x1 = 0.0046 | 804.56
333.04 K, 1000 kPa, x1 = 0.0018 | 774.01
333.04 K, 1000 kPa, x1 = 0.0077 | 784.16
333.04 K, 1000 kPa, x1 = 0.0112 | 790.89
333.04 K, 1000 kPa, x1 = 0.0142 | 795.51
333.04 K, 2000 kPa, x1 = 0.0018 | 774.92
333.04 K, 2000 kPa, x1 = 0.0077 | 785.05
333.04 K, 2000 kPa, x1 = 0.0112 | 791.78
333.04 K, 2000 kPa, x1 = 0.0142 | 796.38
333.04 K, 3000 kPa, x1 = 0.0018 | 775.82
333.04 K, 3000 kPa, x1 = 0.0077 | 785.95
333.04 K, 3000 kPa, x1 = 0.0112 | 792.66
333.04 K, 3000 kPa, x1 = 0.0142 | 797.27
333.04 K, 4000 kPa, x1 = 0.0018 | 776.73
333.04 K, 4000 kPa, x1 = 0.0077 | 786.85
333.04 K, 4000 kPa, x1 = 0.0112 | 793.55
333.04 K, 4000 kPa, x1 = 0.0142 | 798.15
333.04 K, 5000 kPa, x1 = 0.0018 | 777.64
333.04 K, 5000 kPa, x1 = 0.0077 | 787.74
333.04 K, 5000 kPa, x1 = 0.0112 | 794.46
333.04 K, 5000 kPa, x1 = 0.0142 | 799.05
333.04 K, 6000 kPa, x1 = 0.0018 | 778.55
333.04 K, 6000 kPa, x1 = 0.0077 | 788.65
333.04 K, 6000 kPa, x1 = 0.0112 | 795.35
333.04 K, 6000 kPa, x1 = 0.0142 | 799.92
333.04 K, 7000 kPa, x1 = 0.0018 | 779.47
